This note sets out measurements from patent US20030199017A1, “Method for releasing a product comprising chemical oxidation, method for detecting said product and uses thereof” (Proteus, priority 2000, published 2003).

A short description of data set [1]: negative control without enzyme, temperature series (para-nitrophenol released from the substrate). It is filed as physicochemical. Conditions: PIPES buffer 0.1 M pH 7, 40 minutes, no enzyme. On the procedure: (§1) 74 μl of PIPES buffer (100 mmol, pH 7) and 10 μl of a lipase solution at 0.01 mg/ml are added to 13.6 μmol of 2-hydroxy-4-p-nitrophenyl-butyl-decanoate. The reaction is incubated in a water bath for 40 minutes at 50, 60, 70, 80 and 95° C. The samples are then removed from the water bath. Then, 40 μl of NaIO4 (100 mmol) and 4 μl of BSA (50 mg/ml) are added to the mixture. The pH of the solution is then adjusted to 10 by adding 40 μl of an Na2CO3 solution at 0.2 M. The para-nitrophenol that is released is then measured with a colorimeter at 414 nm.
A negative control without enzyme was carried out under the same experimental conditions.
(§2) 74 μl of PIPES buffer (100 mmol, pH 7) and 10 μl of a lipase solution at 0.01 mg/ml are added to 13.6 μmol of para-nitrophenylbutyrate. The reaction is incubated in a water bath for 40 minutes at 50, 60, 70, 80 and 95° C. The samples are then removed from the water bath, and the pH of the solution is adjusted to 10 with a 0.2 M Na2CO3 solution. The released para-nitrophenol is then measured with a calorimeter at 414 nm.
(§3) The activity of the lipase based on the incubation temperature was measured by using 2-hydroxy-4-p-nitrophenyl-butyl-decanoate and the para-nitrophenylbutyrate commercial substrate. […] The activities are expressed in %. The enzymatic reactions were carried out in the PIPES buffer (0.1 M, pH 7) at 50, 60, 70, 80 and 95° C. for 40 minutes. A negative control without enzyme was also carried out by using the same experimental conditions.

Data set [2] concerns the target T1, Candida antarctica lipase (Moesziomyces antarcticus, UniProt P41365). As to the kind of experiment: Candida antarctica lipase activity based on the pH of the solution (release of para-nitrophenol, 414 nm). It is filed as biochemical. Conditions: 40 minutes. On the procedure: (§4) The hydrolytic activity of the Candida antarctica lipase was tested on 2 substrates: 2-hydroxy-4-p-nitrophenyl-butyl-decanoate and p-nitro-phenylbutyrate. The lipase activity is detected after hydrolysis of ester functions of substrates that produce the release (direct or indirect) of yellow-colored para-nitrophenol that is measured by colorimetry at 414 nm. The tests were carried out at different temperatures and pH.
(§5) The stock solutions of 2-hydroxy-4-p-nitrophenyl-butyl-decanoate and para-nitrophenolbutyrate (SIGMA) are prepared at the concentration of 20 mmol respectively in acetonitrile and isopropanol. The concentration of lipase B that is used is 0.01 mg/ml in a phosphate buffer (100 mmol, pH 7).
The enzymatic activity of the Candida antarctica lipase was carried out at different pH levels by using buffers (100 mmol) listed in Table VII below.
74 μl of buffer at the desired pH (100 mmol) and 10 μl of a lipase solution at 0.01 mg/ml are added to 13.6 μmol of 2-hydroxy-4-p-nitrophenyl-butyl-decanoate. The reaction is incubated in a water bath for 40 minutes at 60° C. The samples are then removed from the water bath. Then, 40 μl of NaIO4 (100 mmol) and 4 μl of BSA (50 mg/ml) are added to the mixture. The pH of the solution is then adjusted to 10 by adding 40 μl of a solution of Na2CO3 at 0.2 M. The para-nitrophenol that is released is then measured with a calorimeter at 414 nm.
(§6) 74 μl of buffer at the desired pH (100 mmol) and 10 μl of a lipase solution at 0.01 mg/ml are added to 13.6 μmol of para-nitrophenylbutyrate. The reaction is incubated in a water bath for 40 minutes at 60° C. The samples are then removed from the water bath, and the pH of the solution is adjusted to 10 with a 0.2 M Na2CO3 solution. The para-nitrophenol that is released is then measured with a colorimeter at 414 nm.
(§7) The hydrolytic activity of the lipase based on the pH of the solution was also measured. […] The activities are expressed in %. The enzymatic reactions were incubated at 60° C. for 40 minutes at pH 3, 4, 5, 6.5, 7 and 8. A negative control without enzyme was also carried out by using the same experimental conditions.

Data set [3] is described as follows: negative control without enzyme, pH series (para-nitrophenol released from the substrate). It is filed as physicochemical. As to conditions: 40 minutes, no enzyme. As for the experimental part: as §6, §7
In data set [4] the target is T1, Candida antarctica lipase. The experiment in a line: Candida antarctica lipase activity based on temperature (release of para-nitrophenol, colorimetry at 414 nm). The format is biochemical. As to conditions: PIPES buffer 0.1 M pH 7, 40 minutes. As for the experimental part: as §4, §5, §1, §2, §3
A short description of data set [5]: stability of the substrates / oxidation by periodate in the presence of BSA. As to conditions: aqueous media. It is filed as physicochemical. From the text:
The oxidation of 1,2 diols and amino alcohols by periodate in an aqueous medium is a reaction that is well known to one skilled in the art. This reaction provides a purely chemical alternative for the conversion of alcohols into carbonyl groups in aqueous medium with a high chemoselectivity in the presence of other functional groups.
The substrates acetates 1, amide 5 and epoxide 6 are stable in the presence of periodate and BSA […] the aqueous media. […] Under optimized reaction conditions using 100 μm of substrate, 1 mmol of sodium periodate, 2 mg/ml of BSA in a borate buffer with a pH of 8.8, diol 2 is transformed into umbelliferone with a yield of 72% without observable secondary reactions. […] The oxidation of amino alcohol 6 takes place with a yield of 85% under the same conditions.

T1 sequence (P41365 26-342): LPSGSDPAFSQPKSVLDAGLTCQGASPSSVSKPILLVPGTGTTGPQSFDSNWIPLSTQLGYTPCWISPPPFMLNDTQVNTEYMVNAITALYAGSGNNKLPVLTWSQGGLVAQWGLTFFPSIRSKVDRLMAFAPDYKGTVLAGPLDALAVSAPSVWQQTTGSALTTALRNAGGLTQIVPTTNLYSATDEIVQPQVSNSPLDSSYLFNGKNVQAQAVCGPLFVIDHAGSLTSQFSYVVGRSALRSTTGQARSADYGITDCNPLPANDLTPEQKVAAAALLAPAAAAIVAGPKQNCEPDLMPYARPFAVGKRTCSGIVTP

Regarding `CCCC(=O)Oc1ccc([N+](=O)[O-])cc1` [p-Nitrophenylbutyrate, p-nitro-phenylbutyrate, reference compound], the “activity signal Without enzyme” value in data set [1] (50° C.) was found to be 83.6%; in data set [1] (60° C.), 67.3%; in data set [1] (70° C.), 59.5%; in data set [1] (80° C.), 59.8%; in data set [1] (95° C.) it was 71.5%; in data set [3] (pH 3, 60° C.), 54.9%. Besides, the “activity signal Without enzyme” value is 63.6% in data set [3] (pH 4, 60° C.); 65.6% in data set [3] (pH 5, 60° C.); 69.2% in data set [3] (pH 6.5, 60° C.); 51.4% in data set [3] (pH 7, 60° C.); 103.9% in data set [3] (pH 8, 60° C.). In addition, the “activity of the Candida antarctica lipase (Lipase B)” value (“activity … (Lipase B)” for short) in data set [2] (pH 3, 60° C.) is listed as 94.2%; in data set [2] (pH 4, 60° C.), 73%; in data set [2] (pH 5, 60° C.), 100%; in data set [2] (pH 6.5, 60° C.) it was 79.5%; in data set [2] (pH 7, 60° C.), 60.8%; in data set [2] (pH 8, 60° C.), 103.9%. Further, the “activity … (Lipase B)” value came out at 100% in data set [4] (50° C.); 75.4% in data set [4] (60° C.); 60.4% in data set [4] (70° C.); 55.9% in data set [4] (80° C.); 66.7% in data set [4] (95° C.).

As to `O=c1ccc2ccc(OCC[C@H]3CO3)cc2o1` [epoxide 6, (S)-4-(7-coumarinyloxy)-1,2-epoxybutane], in data set [5], the “stability in the presence of periodate and BSA” value (“stability in the presence” below) is “stable”.

Regarding `CCCCCCCCCC(=O)OCC(O)CCc1ccc([N+](=O)[O-])cc1` (stereo not drawn) [2-hydroxy-4-p-nitrophenyl-butyl-decanoate], the “activity signal Without enzyme” value in data set [1] (50° C.) stood at 8.7%; in data set [1] (60° C.), 9.4%; in data set [1] (70° C.) it was 9.5%; in data set [1] (80° C.) it was 8.1%; in data set [1] (95° C.), 8.6%; in data set [3] (pH 3, 60° C.), 3.9%. Also, the “activity signal Without enzyme” value in data set [3] (pH 4, 60° C.) was 2.7%; in data set [3] (pH 5, 60° C.) it was 2.6%; in data set [3] (pH 6.5, 60° C.), 2.9%; in data set [3] (pH 7, 60° C.) it was 3.4%; in data set [3] (pH 8, 60° C.), 2.8%. Further, the “activity … (Lipase B)” value was determined as 58.9% in data set [2] (pH 3, 60° C.); 80.9% in data set [2] (pH 4, 60° C.); 96.1% in data set [2] (pH 5, 60° C.); 100% in data set [2] (pH 6.5, 60° C.); 72% in data set [2] (pH 7, 60° C.); 40% in data set [2] (pH 8, 60° C.). In addition, the “activity … (Lipase B)” value in data set [4] (50° C.) was 100%; in data set [4] (60° C.) it was 75.9%; in data set [4] (70° C.) it was 61.5%; in data set [4] (80° C.), 44.2%; in data set [4] (95° C.), 26.1%.

Turning to `O=c1ccc2ccc(OCC[C@H](O)CO)cc2o1` [diol 2, (S)-4-(7-coumarinyloxy)-1,2-butanediol], the “stability in the presence” value in data set [5] was “release umbelliferone”.

With `NCC(O)CCOc1ccc2ccc(=O)oc2c1` (stereo not drawn) [amino alcohol 6, 1-Amino-4-(7-coumarinyloxy)-2-butanol], in data set [5], the “stability in the presence” value is on record as “release umbelliferone”.

For `O=C(Cc1ccccc1)NCC(O)CCOc1ccc2ccc(=O)oc2c1` (stereo not drawn) [amide 5, 1-Phenylacetamido-4-(7-coumarinyloxy)-2-butanol], the “stability in the presence” value in data set [5] was “stable”.
